For the test, the system named is 596521-263-R-J1-PDC complex spheroids, viability % of control. Put plainly: Anticancer human tumor 596521-263-R-J1-PDC patient-derived soft tissue sarcoma cell line growth inhibition [GQUAD]. As to conditions: for viability, T/C: stronger effect = lower value. An excerpt:
DNA G-quadruplex Stabilizer Agents in Combinations in Complex Spheroids
A high-throughput screen of multi-cell type tumor spheroids was designed to identify active combinations of DNA G-quadruplex stabilizer agents and targeted small molecules. Complex spheroids include a stromal component modeled by human endothelial cells (HUVEC) and fibroblasts modeled by human mesenchymal stem cells (MSCs). The concentration ranges selected for each drug and investigational agent were based upon clinically achievable concentrations if the clinical Cmax of the agent was known.
Compounds. The drugs and investigational agents: pidnarulex (CX-5461; NSC782164), APTO-253 (NSC789042), BRACO-19 (NSC847499), peposertib (NSC802822), ceralasertib (NSC780249), elimusertib (NSC800525), camonsertib (NSC841442), AZD-1390 (NSC803789), olaparib (NSC753686), talazoparib (NSC767125), ART-558 (NSC835418), sotorasib (NSC818433), MRTX-1133 (NSC836407), SN-38 (NSC673596), topotecan (NSC609699), etoposide (NSC141540), doxorubicin (NSC123127), gemcitabine (NSC613327), 5-fluorouracil (NSC19893), paclitaxel (NSC125973), vemurafenib (NSC761431), panobinostat (NSC761190), R-306465 (JNJ-16241199; NSC773264), adavosertib (NSC754352), TP-3654 (NSC805149), carboplatin (NSC241240), KSQ-4279 (NSC840948), and staurosporine (NSC755774) were obtained from the National Cancer Institute (NCI) Developmental Therapeutics Program Chemical Repository (34). The FDA-approved anticancer drug set is available from the NCI Developmental Therapeutics Program. […] The stock solutions were prepared in dimethyl sulfoxide (DMSO, Sigma-Aldrich, St. Louis, MO, cat. D2650) at 800-fold the tested concentration and stored at -70 degrees C prior to their use. All drugs and investigational agents were tested over a range starting from a high concentration at or near the clinical Cmax and decreasing in half-log increments. If the clinical Cmax for an agent had not been determined, the highest concentration tested was 10 microM.
2.3 Cell Culture. All cells were maintained in an incubator at 37 degrees C and 5% CO2 with 95% humidity. The PDC lines were cultured according to standard operating procedures established by the NCI PDMR. All PDCs were thawed and cultured in Matrigel-coated flasks prepared with a working solution of 1X Ham's F-12 nutrient mix, without supplementation (Invitrogen, cat. 11765054), 100 U/mL penicillin-streptomycin (Invitrogen, cat. 15140122), and 2.5% Matrigel (Corning Inc., cat. 354248) for the first three passages. The 857933-349-R-J2-PDC line was cultured in 6C/Colon 1B media, which includes advanced DMEM/F-12 (Thermo Fisher Scientific, cat. 12634028), 10 mM HEPES (Thermo Fisher Scientific, cat. 15630080), 1X GlutaMAX supplement (Thermo Fisher Scientific, cat. 35050061), 0.1 mg/mL primocin (InvivoGen, cat. ant-pm-2), 10% defined fetal bovine serum, heat inactivated (HyClone Laboratories Inc., cat. SH30070.03HI), 50% L-WRN conditioned media (ATCC, cat. CRL-3276), 1.25 mM N-Acetyl-L-cysteine (Sigma-Aldrich, cat. A9165), 10 mM nicotinamide (Sigma-Aldrich, cat. N0636), 1X B-27 supplement (Thermo Fisher Scientific, cat. 17504044), 1X N-2 supplement (Thermo Fisher Scientific, cat. 17502048), 10 microM Y-27632 dihydrochloride (Tocris Bioscience, cat. 1254), and 50 ng/mL human EGF recombinant protein (Thermo Fisher Scientific, cat. PHG0311). The 485176-168-R4-J1-PDC line was cultured in Panc media, which includes all 6C/Colon 1B media components plus 100 ng/mL human FGF-10 (Thermo Fisher Scientific, cat. 100-26), 500 nM SB-431542 (Selleckchem, cat. S1067), and gastrin (Tocris, cat. 3006).
[…]

Setting [1] is: curve of first compound, second compound 0.0316 µM.
Setting [2] is: curve of first compound, second compound 0.1 µM.
The mark [3] stands for this setting: curve of first compound, second compound 0.316 µM.
The mark [4] stands for this setting: curve of first compound, second compound 1 µM.
The mark [5] stands for this setting: curve of first compound, second compound 3.16 µM.
The mark [6] stands for this setting: curve of first compound, second compound 10 µM.
[7] abbreviates: second compound 0.0316 µM, first compound 0.0316 µM.
[8] abbreviates: second compound 0.0316 µM, first compound 0.1 µM.
Setting [9] is: second compound 0.0316 µM, first compound 0.316 µM.
The mark [10] stands for this setting: second compound 0.0316 µM, first compound 1 µM.
The mark [11] stands for this setting: second compound 0.0316 µM, first compound 3.16 µM.
[12] abbreviates: second compound 0.0316 µM, first compound 10 µM.
Where [13] appears, read: second compound 0.1 µM, first compound 0.0316 µM.
Where [14] appears, read: second compound 0.1 µM, first compound 0.1 µM.
Where [15] appears, read: second compound 0.1 µM, first compound 0.316 µM.
[16] abbreviates: second compound 0.1 µM, first compound 1 µM.
[17] abbreviates: second compound 0.1 µM, first compound 3.16 µM.
The mark [18] stands for this setting: second compound 0.1 µM, first compound 10 µM.
[19] abbreviates: second compound 0.316 µM, first compound 0.0316 µM.
Where [20] appears, read: second compound 0.316 µM, first compound 0.1 µM.
Setting [21] is: second compound 0.316 µM, first compound 0.316 µM.
Setting [22] is: second compound 0.316 µM, first compound 1 µM.
Where [23] appears, read: second compound 0.316 µM, first compound 3.16 µM.
Where [24] appears, read: second compound 0.316 µM, first compound 10 µM.
Where [25] appears, read: second compound 1 µM, first compound 0.0316 µM.
[26] abbreviates: second compound 1 µM, first compound 0.1 µM.
Where [27] appears, read: second compound 1 µM, first compound 0.316 µM.
The mark [28] stands for this setting: second compound 1 µM, first compound 1 µM.
Where [29] appears, read: second compound 1 µM, first compound 3.16 µM.
[30] abbreviates: second compound 1 µM, first compound 10 µM.
Where [31] appears, read: second compound 3.16 µM, first compound 0.0316 µM.
Where [32] appears, read: second compound 3.16 µM, first compound 0.1 µM.
Where [33] appears, read: second compound 3.16 µM, first compound 0.316 µM.
Setting [34] is: second compound 3.16 µM, first compound 1 µM.
[35] abbreviates: second compound 3.16 µM, first compound 3.16 µM.
Setting [36] is: second compound 3.16 µM, first compound 10 µM.
[37] abbreviates: second compound 10 µM, first compound 0.0316 µM.
Setting [38] is: second compound 10 µM, first compound 0.1 µM.
The mark [39] stands for this setting: second compound 10 µM, first compound 0.316 µM.
The mark [40] stands for this setting: second compound 10 µM, first compound 1 µM.
Where [41] appears, read: second compound 10 µM, first compound 3.16 µM.
[42] abbreviates: second compound 10 µM, first compound 10 µM.

The record followed here is PubChem BioAssay AID2060500 (Molecular Pharmacology Branch, DTP, NCI, 2025).

One may read the viability, T/C as the ratio of treated to control. A word on the IC50: it is the concentration that inhibits the measured activity by half.

Molecules are shown by their SMILES. Values joined by “and” are separate entries in the source; they are usually repeats but may differ in a detail not shown here. Identical values can stand only once.
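Also: spheroids exposed to drugs for 7 days before viability reading.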

In the case of `C=CCn1c(=O)c2cnc(Nc3ccc(N4CCN(C)CC4)cc3)nc2n1-c1cccc(C(C)(C)O)n1`, the viability, T/C is 99.8% and 97.8% and 103% (compound 0.0316 µM); 92% and 80.4% and 93.1% (compound 0.1 µM); 96.9% and 51.6% and 61.3% (compound 0.316 µM); 92.4% and 41% and 41.4% (compound 1 µM); 67.7% and 34.9% and 37% (compound 3.16 µM); 33.8% and 38.8% and 32.9% (compound 10 µM).

As to `CC(C)(O)C1CCC(Nc2ccc3ncc(-c4cccc(C(F)(F)F)c4)n3n2)CC1` (stereo not drawn), the viability, T/C runs as follows: (compound 0.0316 µM) 106% and 99.4% and 95.7%; (compound 0.1 µM) 98.4% and 97.7% and 91.8%; (compound 0.316 µM) 103% and 93.5% and 85.9%; (compound 1 µM) 97.1% and 55.2% and 69.5%; (compound 3.16 µM) 108% and 10.6% and 16.7%; (compound 10 µM) 84% and 18.1% and 15.5%. Besides, for the setting “curve of compound”, the IC50 was > 10 µM and 1.16 µM and 1.54 µM.

On to `CCCS(=O)(=O)Nc1ccc(F)c(C(=O)c2c[nH]c3ncc(-c4ccc(Cl)cc4)cc23)c1F`, for which the viability, T/C is, setting by setting: (compound 0.0316 µM) 105% and 100% and 95.2%; (compound 0.1 µM) 81.5% and 87% and 92.4%; (compound 0.316 µM) 51.8% and 93% and 109%; (compound 1 µM) 43% and 88.8% and 110%; (compound 3.16 µM) 40% and 64.2% and 82.7%; (compound 10 µM) 34.2% and 30.7% and 36.3%.

For the molecule `COc1ncnc(C2CC2)c1-c1ncc2cnn(Cc3ccc(-c4nc(C(F)(F)F)cn4C(C)C)cc3)c2n1`, the viability, T/C (compound 0.0316 µM) was 98.6% and 108% and 92.8%; the viability, T/C (compound 0.1 µM) is 105% and 94.8% and 99.3%; the viability, T/C (compound 0.316 µM) is 97.8% and 85.6% and 98.5%; the viability, T/C (compound 1 µM) was 100% and 65.5% and 81.5%; the viability, T/C (compound 3.16 µM) was 99.2% and 28.8% and 94.3%. Where the note is “curve of compound”, the IC50 is > 10 µM and 1.58 µM.

With `O=C(NO)c1cnc(N2CCN(S(=O)(=O)c3ccc4ccccc4c3)CC2)nc1`, the viability, T/C was 39.6% and 75% and 74.9% (compound 0.0316 µM); 25.7% and 56.3% and 57.3% (compound 0.1 µM); 26.8% and 8.85% and 14% (compound 0.316 µM). The IC50 (curve of compound) was < 0.0316 µM and 0.117 µM and 0.121 µM.

Consider `CC(C)n1c(=O)n(C)c2cnc3cc(F)c(-c4ccc(OCCCN5CCCCC5)nc4)cc3c21` + CN(C)c1ccc(Nc2c3ccc(NC(=O)CCN4CCCC4)cc3nc3cc(NC(=O)CCN4CCCC4)ccc23)cc1, for which the IC50 was above 10 µM under setting [1]; above 10 µM under setting [2]; above 10 µM under setting [3]; above 10 µM under setting [4]; above 10 µM under setting [5]; 0.899 µM under setting [6]. The viability, T/C was 104% under setting [7]; 103% under setting [8]; 100% under setting [9]; 87.1% under setting [10]; 84.1% under setting [11]; 66.8% under setting [12]. Also, the viability, T/C under setting [13] was 104%; the viability, T/C under setting [14] was 106%; the viability, T/C under setting [15] is 91.8%; the viability, T/C under setting [16] was 95.7%; the viability, T/C under setting [17] is 92.4%; the viability, T/C under setting [18] was 63.5%. Besides, the viability, T/C was 111% under setting [19]; 96.8% under setting [20]; 103% under setting [21]; 89.8% under setting [22]; 84.7% under setting [23]; 64.9% under setting [24]. For the same molecule, the viability, T/C is 99.8% under setting [25]; 112% under setting [26]; 100% under setting [27]; 98.5% under setting [28]; 96.9% under setting [29]; 73.6% under setting [30]. The viability, T/C under setting [31] was 90.7%; the viability, T/C under setting [32] is 98%; the viability, T/C under setting [33] was 91.2%; the viability, T/C under setting [34] was 80.7%; the viability, T/C under setting [35] is 77%; the viability, T/C under setting [36] is 59.6%. Further, the viability, T/C under setting [37] is 70%; the viability, T/C under setting [38] is 60.7%; the viability, T/C under setting [39] is 57.4%; the viability, T/C under setting [40] was 48.4%; the viability, T/C under setting [41] is 43.6%; the viability, T/C under setting [42] was 31.5%.

Regarding `CC1COCCN1c1cc(-c2ccnn2C)c2ccnc(-c3ccn[nH]3)c2n1` (stereo not drawn) + CN(C)c1ccc(Nc2c3ccc(NC(=O)CCN4CCCC4)cc3nc3cc(NC(=O)CCN4CCCC4)ccc23)cc1, the IC50 under setting [1] turned out to be 0.206 µM; the IC50 under setting [2] is 0.301 µM; the IC50 under setting [3] is 0.366 µM; the IC50 under setting [4] was 0.449 µM; the IC50 under setting [5] was found to be 0.348 µM; the IC50 under setting [6] turned out to be 0.161 µM. Further, the viability, T/C is, setting by setting: under setting [7], 69.3%; under setting [8], 53.7%; under setting [9], 44.4%; under setting [10], 41.3%; under setting [11], 29.4%; under setting [12], 22.8%. In addition, the viability, T/C was 81% under setting [13]; 59.2% under setting [14]; 49.5% under setting [15]; 39.2% under setting [16]; 30.9% under setting [17]; 21.3% under setting [18]. Also, the viability, T/C is 65.6% under setting [19]; 63.4% under setting [20]; 49.9% under setting [21]; 39.3% under setting [22]; 30.4% under setting [23]; 21.9% under setting [24]. The viability, T/C reads like this: under setting [25], 66.2%; under setting [26], 63.6%; under setting [27], 50.2%; under setting [28], 45.4%; under setting [29], 30.6%; under setting [30], 25%. The viability, T/C is 69.4% under setting [31]; 59.4% under setting [32]; 49.8% under setting [33]; 43.6% under setting [34]; 31.1% under setting [35]; 22.9% under setting [36]. Moreover, the viability, T/C by setting is: under setting [37], 55.6%; under setting [38], 54.8%; under setting [39], 44.4%; under setting [40], 35.5%; under setting [41], 26.6%; under setting [42], 21.9%.
